Test results taken from paper PMC10156769, “The novel anti-cancer fluoropyrimidine NUC-3373 is a potent inhibitor of thymidylate synthase and an effective DNA-damaging agent” (Cancer Chemotherapy and Pharmacology, 2023).

Columns and labels:
[1] = molecular target: T1, dUTPase (Deoxyuridine triphosphate nucleotidohydrolase) (Homo sapiens, UniProt P33316); test: EnzChek pyrophosphate coupled assay, recombinant human dUTPase, product inhibition; format: biochemical
T1 construct: gene DUT
T1 sequence (P33316 70-252): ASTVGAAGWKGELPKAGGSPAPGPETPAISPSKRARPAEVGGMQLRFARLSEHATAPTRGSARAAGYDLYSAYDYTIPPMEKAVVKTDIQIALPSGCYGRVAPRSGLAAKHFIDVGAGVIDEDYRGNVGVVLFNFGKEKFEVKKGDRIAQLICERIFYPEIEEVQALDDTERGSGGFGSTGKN

[2] = molecular target: T2, thymidylate synthase (TS) (Homo sapiens, UniProt P04818); test: western blot shift of TS ([…] to […] kDa, ternary complex) in HCT116 and SW480 cells treated with NUC-3373 or 5-FU; format: cell-based
T2 construct: gene TYMS
T2 sequence (P04818 2-313): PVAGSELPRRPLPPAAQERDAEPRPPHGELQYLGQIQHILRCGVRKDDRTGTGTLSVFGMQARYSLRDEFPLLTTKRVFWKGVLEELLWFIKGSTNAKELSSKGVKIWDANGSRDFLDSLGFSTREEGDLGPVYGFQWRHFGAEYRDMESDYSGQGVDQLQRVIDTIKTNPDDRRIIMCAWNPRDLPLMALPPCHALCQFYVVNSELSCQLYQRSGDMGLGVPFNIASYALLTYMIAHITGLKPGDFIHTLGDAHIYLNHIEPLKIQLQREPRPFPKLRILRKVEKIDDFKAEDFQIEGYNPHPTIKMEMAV

Ki [1] [µM]	SMILES	western blot shift of TS (36 to 38 kDa, ternary complex) in HCT116 and SW480 cel [2]
0.62 ± 0.05	O=c1[nH]c(=O)n([C@H]2C[C@H](O)[C@@H](COP(=O)(O)O)O2)cc1F [FdUMP]	The binding of FdUMP to TS, causing inhibition of the enzyme, is determined by the presence of an upper band
5.8 ± 1.4	O=c1ccn([C@H]2C[C@H](O)[C@@H](COP(=O)(O)O)O2)c(=O)[nH]1 [dUMP]	
